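Tested at 5 concentrations; 48 h exposure; 96-well plates; endpoints linearly interpolated, else capped at highest concentration. At the GI50, growth is halved. TGI: concentration producing complete growth inhibition.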 Where a SMILES comes first, the peptide text is derived from it. The star is where a group is joined. Palmitoyl = CCCCCCCCCCCCCCCC(=O)* Some results are limits rather than exact numbers.

Among the test systems are SK-MEL-28 melanoma; HCT-15 colon; UACC-62 melanoma; ACHN renal; NCI-H460 lung; M14 melanoma; CCRF-CEM leukemia; MOLT-4 leukemia; HCT-116 colon; NCI-H226 lung.
Experiment in all cases: DTP human tumour cell line panel, 48 h

Take `O[C@@]12Cc3c([nH]c4ccccc34)[C@@H]3Oc4cccc5c4[C@@]31CCN(CC1CC1)[C@@H]2C5`: the TGI in the assay with SK-MEL-28 melanoma stood at 38.3 µM; in the assay with HCT-15 colon, 32.6 µM; with UACC-62 melanoma, 32.3 µM; with ACHN renal, 34.8 µM; in the assay with NCI-H460 lung, 60.9 µM; with M14 melanoma it was 39.4 µM. Moreover, the TGI with CCRF-CEM leukemia is 29.9 µM; with MOLT-4 leukemia, 52.7 µM.
In the case of `CCOC(=O)c1c(C)n(-c2ccc(Cl)cc2)c2c1cc(O)c1[nH]c3c(c12)CCCC3`, the TGI in the assay on SK-MEL-28 melanoma, in the assay on HCT-15 colon, with UACC-62 melanoma, in the assay on HCT-116 colon, in the assay with ACHN renal and with NCI-H460 lung was over 100 µM throughout. Also, the TGI with M14 melanoma, in the assay on CCRF-CEM leukemia, with NCI-H226 lung and in the assay with MOLT-4 leukemia was over 100 µM each time.
With `COC(=O)C1=C(OC(=O)/C(=C/c2ccc(Cl)cc2)c2ccc(Cl)cc2)C(C(=O)OC)[C@]2(O)[C@@H](C(=O)OC)[C@H]1C[C@@H](c1ccccc1)[C@@H]2C(=O)OC` (some centres undefined), the TGI with SK-MEL-28 melanoma, in the assay with HCT-15 colon, in the assay with UACC-62 melanoma, in the assay on HCT-116 colon, with ACHN renal and in the assay on NCI-H460 lung was over 100 µM throughout. The TGI with M14 melanoma, in the assay on NCI-H226 lung and with MOLT-4 leukemia was over 100 µM throughout.
With `c1cnc2c(c1)ccc1cccnc12`, the TGI was over 100 µM in the assay with SK-MEL-28 melanoma; over 100 µM in the assay with HCT-15 colon; over 100 µM in the assay with UACC-62 melanoma; over 100 µM in the assay with HCT-116 colon; over 100 µM with ACHN renal; 7.98 µM with NCI-H460 lung. The TGI was over 26.9 µM with M14 melanoma, 5.5 µM in the assay with CCRF-CEM leukemia, over 23.5 µM in the assay with NCI-H226 lung and 8.37 µM in the assay with MOLT-4 leukemia.
As to `COc1cc(C(C)O)c[n+](Cc2ccccc2)c1` (centres undefined), the TGI in the assay with SK-MEL-28 melanoma, in the assay on HCT-15 colon, with UACC-62 melanoma, in the assay with HCT-116 colon, in the assay on ACHN renal and with NCI-H460 lung was over 100 µM in each case. For the same compound, the TGI in the assay on M14 melanoma, in the assay with CCRF-CEM leukemia, in the assay on NCI-H226 lung and in the assay with MOLT-4 leukemia was over 100 µM throughout.
As to `C/C(=N/N=C(\[O-])c1ccncc1)C(F)(F)F.C/C(=N\N=C(/[O-])c1ccncc1)C(F)(F)F.[Ni+2]`, the GI50 with SK-MEL-28 melanoma is 0.00108 µM; with HCT-15 colon, over 1 µM; with CCRF-CEM leukemia, over 1 µM; with NCI-H226 lung, over 1 µM; with MOLT-4 leukemia it was over 1 µM. In addition, the TGI in the assay with SK-MEL-28 melanoma was 0.005 µM; with HCT-15 colon, over 1 µM; in the assay with CCRF-CEM leukemia, over 1 µM; in the assay with NCI-H226 lung it was over 1 µM; in the assay on MOLT-4 leukemia it was over 1 µM.
With `CN1C(c2ccccc2)CC(=O)C(N)C1c1ccccc1` (centres undefined), the concentration for total growth inhibition (TGI) in the assay on SK-MEL-28 melanoma is over 31.6 µM; in the assay on HCT-15 colon it was over 63.1 µM; with UACC-62 melanoma, 81.2 µM; in the assay with HCT-116 colon, 34.2 µM; in the assay with ACHN renal it was over 100 µM; in the assay on NCI-H460 lung, 55.6 µM. The TGI in the assay with M14 melanoma is over 69.2 µM; with CCRF-CEM leukemia it was 66 µM; in the assay on NCI-H226 lung, over 100 µM; in the assay with MOLT-4 leukemia, over 58.8 µM.
In the case of `Nc1[nH]c(=O)nc2c1cnn2C1CCCCO1` (centres undefined), the TGI in the assay with SK-MEL-28 melanoma, in the assay with HCT-15 colon, with HCT-116 colon, in the assay on ACHN renal, with NCI-H460 lung and with M14 melanoma was over 100 µM each time. Moreover, the TGI with CCRF-CEM leukemia, in the assay with NCI-H226 lung and in the assay on MOLT-4 leukemia was over 100 µM each time.
As for `c1ccc(-c2nc(N3CCNCC3)c3oc(-c4ccccc4)nc3n2)cc1`, the GI50 with SK-MEL-28 melanoma was 1.73 µM; in the assay on HCT-15 colon, 1.8 µM; in the assay with UACC-62 melanoma, 1.72 µM; with ACHN renal, 1.64 µM; in the assay on NCI-H460 lung, 1.75 µM; in the assay on CCRF-CEM leukemia it was 1.63 µM. The GI50 in the assay with NCI-H226 lung is 2.11 µM. The TGI is 3.16 µM in the assay with SK-MEL-28 melanoma; 3.51 µM with HCT-15 colon; 3.11 µM in the assay with UACC-62 melanoma; 3 µM in the assay with ACHN renal; 3.38 µM with NCI-H460 lung; 4.08 µM in the assay with CCRF-CEM leukemia. The compound further yielded a TGI in the assay on NCI-H226 lung of 5.05 µM.
In the case of `CON(C)c1nc(N(C)OC)nc(N(C)OC)n1`, the TGI in the assay on SK-MEL-28 melanoma, with HCT-15 colon, with UACC-62 melanoma, in the assay with HCT-116 colon, in the assay with ACHN renal and in the assay on NCI-H460 lung was over 10 µM throughout. In addition, the TGI with M14 melanoma, with CCRF-CEM leukemia, in the assay with NCI-H226 lung and in the assay with MOLT-4 leukemia was over 10 µM in each case.
For the compound `CCCCCCCCCCCCCCCC(=O)N1CCCC1C(=O)NCC(=O)NC(Cc1ccccc1)C(=O)NC(C)C(=O)NC(CO)C(=O)NC(Cc1ccc(O)cc1)C(=O)NC(CCCCN)C(=O)NC(CC(C)C)C(=O)NC(CCCN=C(N)N)C(=O)N1CCCC1C(=O)NCC(N)=O` (centres undefined) (Palmitoyl-PGFASYKLRPG-NH2; configuration not given here), the GI50 with SK-MEL-28 melanoma was 22.1 µM; with HCT-116 colon it was 12.1 µM; in the assay with NCI-H460 lung it was 23.5 µM; in the assay on M14 melanoma, 16.8 µM; in the assay with CCRF-CEM leukemia it was 16.5 µM; in the assay with NCI-H226 lung it was 15.9 µM. The GI50 in the assay on MOLT-4 leukemia was 17.6 µM. Further, the TGI was found to be 48.8 µM in the assay with SK-MEL-28 melanoma; 24.9 µM in the assay on HCT-116 colon; 61.4 µM in the assay on NCI-H460 lung; 35.3 µM in the assay on M14 melanoma; 30.1 µM in the assay on CCRF-CEM leukemia; 35.6 µM in the assay with NCI-H226 lung. Moreover, in the assay on MOLT-4 leukemia, the TGI is 31.4 µM.
As to `Cc1c(-c2ccccc2)[nH]c2cc(Cl)ccc2c1=O`, the TGI in the assay on SK-MEL-28 melanoma, in the assay with HCT-15 colon, in the assay on UACC-62 melanoma, with HCT-116 colon, with ACHN renal and with NCI-H460 lung was over 100 µM throughout. For the same compound, the TGI is over 100 µM in the assay on M14 melanoma, over 100 µM in the assay on CCRF-CEM leukemia, 68 µM in the assay with NCI-H226 lung and over 100 µM with MOLT-4 leukemia.
For the compound `Nc1nc(Nc2ccccc2)c2[nH]cnc2n1`, the TGI in the assay with SK-MEL-28 melanoma, with HCT-15 colon, with UACC-62 melanoma, in the assay on HCT-116 colon, in the assay with ACHN renal and in the assay with M14 melanoma was over 100 µM each time. In addition, the TGI in the assay with CCRF-CEM leukemia, in the assay with NCI-H226 lung and in the assay on MOLT-4 leukemia was over 100 µM throughout.
On to `CC1=C(O)C2=C(C(=O)C1=O)[C@@H](C)CC[C@@H]2[C@@H](C)C/C=C/C(C)(C)O`, for which the TGI is over 100 µM with HCT-15 colon; over 100 µM with UACC-62 melanoma; over 100 µM with HCT-116 colon; 98 µM in the assay on ACHN renal; over 100 µM with NCI-H460 lung; over 100 µM in the assay on M14 melanoma. Also, the values for the TGI in the assay on CCRF-CEM leukemia, in the assay with NCI-H226 lung and with MOLT-4 leukemia were over 100 µM, over 100 µM and 93.2 µM, respectively.
In the case of `OCCN(CCO)c1ncnc2nc[nH]c12`, the total growth inhibition concentration (TGI) in the assay with SK-MEL-28 melanoma, in the assay with HCT-15 colon, in the assay with UACC-62 melanoma, with HCT-116 colon, with ACHN renal and in the assay on NCI-H460 lung was over 100 µM in each case. Moreover, the TGI with M14 melanoma, with CCRF-CEM leukemia, in the assay on NCI-H226 lung and in the assay with MOLT-4 leukemia was over 100 µM throughout.
In the case of `CCN1CCC(O)(/C=C/c2ccccc2C)C(C(=O)/C=C/c2ccccc2C)C1` (centres undefined), the TGI in the assay on SK-MEL-28 melanoma worked out at 6.71 µM; in the assay with HCT-15 colon it was 3.8 µM; in the assay with UACC-62 melanoma, 10.7 µM; with HCT-116 colon it was 3.38 µM; in the assay on NCI-H460 lung it was 3.18 µM; in the assay on M14 melanoma it was 4.45 µM. Further, the TGI was found to be 4.85 µM with CCRF-CEM leukemia and 6.12 µM in the assay on MOLT-4 leukemia.
As for `CC(N)Cc1ccc(Cl)c(Cl)c1` (centres undefined), the TGI was 39.1 µM with SK-MEL-28 melanoma; 84.9 µM in the assay on HCT-15 colon; 50.2 µM with UACC-62 melanoma; over 100 µM in the assay on HCT-116 colon; over 84.6 µM in the assay on ACHN renal; 97.1 µM with NCI-H460 lung. In addition, the TGI is 33.9 µM in the assay on M14 melanoma, over 78.1 µM in the assay with CCRF-CEM leukemia, over 100 µM in the assay on NCI-H226 lung and 71.2 µM in the assay with MOLT-4 leukemia.
In the case of `Nc1nc(O)c2ncn([C@H]3CC[C@@H](CO)O3)c2n1`, the TGI with SK-MEL-28 melanoma, with HCT-15 colon, in the assay with UACC-62 melanoma, with HCT-116 colon, with NCI-H460 lung and in the assay on M14 melanoma was over 100 µM throughout. Besides, the TGI with CCRF-CEM leukemia, in the assay on NCI-H226 lung and in the assay with MOLT-4 leukemia was over 100 µM each time.

As usually defined, the TGI is the concentration at which net growth stops. Usually GI50 stands for the concentration that inhibits growth by half.

Source of the values: PubChem BioAssay (NCI).
